Laboratory results taken from article PMC8799360, “In Vitro and In Vivo Effect of Xylopic Acid on Cytochrome P450 Enzymes” (Advances in Pharmacological and Pharmaceutical Sciences, 2022).

Test system: T1, CYP 3A4
T1 construct: liver microsomes from phenobarbitone-pretreated male rats
Assay: fluorometric benzyloxyresorufin (BROD) assay in rat liver microsomes
Assay type: biochemical

Row | SMILES | IC50
2 | C=C1[C@@H]2CC[C@H]3[C@]4(C)CCC[C@@](C)(C(=O)O)[C@H]4CC[C@]3(C2)[C@@H]1OC(C)=O [XA, xylopic acid] | 1.3 ± 0.01 µM
